{"source": "ChEMBL document CHEMBL1177833", "about": "“Synthesis and biological activity of 2-hydroxynicotinoyl-serine-butyl esters related to antibiotic UK-3A” (Bioorg Med Chem Lett, 2010)", "key": {"[1]": {"system": "Candida albicans", "assay": "Antimicrobial activity against Candida albicans after 18 to 24 hrs", "assay_type": "functional"}, "[2]": {"system": "Candida albicans", "assay": "Antimicrobial activity against Candida albicans after 18 to 24 hrs at 20 uL by disk diffusion assay", "assay_type": "functional"}, "[3]": {"system": "Escherichia coli", "assay": "Antimicrobial activity against Escherichia coli at 20 uL after 18 to 24 hrs by disk diffusion method", "assay_type": "functional"}, "[4]": {"system": "Bacillus subtilis", "assay": "Antimicrobial activity against Bacillus subtilis at 20 uL after 18 to 24 hrs by disk diffusion method", "assay_type": "functional"}, "[5]": {"system": "Artemia salina", "assay": "Toxicity in Artemia salina assessed as mortality at 250 ppm after 24 hrs", "assay_type": "organism-based", "conditions": "in vivo"}, "[6]": {"system": "Escherichia coli", "assay": "Antimicrobial activity against Escherichia coli after 18 to 24 hrs", "assay_type": "functional"}, "[7]": {"system": "Artemia salina", "assay": "Toxicity in Artemia salina after 24 hrs", "assay_type": "organism-based", "conditions": "in vivo"}, "[8]": {"system": "Artemia salina", "assay": "Toxicity in Artemia salina assessed as mortality at 1000 ppm after 24 hrs", "assay_type": "organism-based", "conditions": "in vivo"}, "[9]": {"system": "Staphylococcus aureus", "assay": "Antimicrobial activity against Staphylococcus aureus after 18 to 24 hrs", "assay_type": "functional"}, "[10]": {"system": "Bacillus subtilis", "assay": "Antimicrobial activity against Bacillus subtilis after 18 to 24 hrs", "assay_type": "functional"}, "[11]": {"system": "Artemia salina", "assay": "Toxicity in Artemia salina assessed as mortality at 500 ppm after 24 hrs", "assay_type": "organism-based", "conditions": "in vivo"}, "[12]": {"system": "Staphylococcus aureus", "assay": "Antimicrobial activity against Staphylococcus aureus at 20 uL after 18 to 24 hrs by disk diffusion method", "assay_type": "functional"}, "[13]": {"system": "Artemia salina", "assay": "Toxicity in Artemia salina assessed as mortality at 100 ppm after 24 hrs", "assay_type": "organism-based", "conditions": "in vivo"}}}
{"smiles": "CCCCOC(=O)[C@H](COC(C)=O)NC(=O)c1cccnc1O", "values": [{"measurement": "MIC", "setting": "[1]", "result": 500, "unit": "µg/mL"}, {"measurement": "diameter of the inhibition zone (DIZ)", "setting": "[2]", "result": 7.5, "unit": "mm"}, {"measurement": "diameter of the inhibition zone (DIZ)", "setting": "[3]", "result": 7, "unit": "mm"}, {"measurement": "diameter of the inhibition zone (DIZ)", "setting": "[4]", "result": 7, "unit": "mm"}, {"measurement": "LC50", "setting": "[5]", "result": 9.7, "unit": "ppm"}, {"measurement": "MIC", "setting": "[6]", "result": 250, "unit": "µg/mL"}, {"measurement": "LC50", "setting": "[7]", "result": 811.01, "unit": "ppm"}, {"measurement": "LC50", "setting": "[8]", "result": 58.66, "unit": "ppm"}, {"measurement": "MIC", "setting": "[9]", "result": 250, "unit": "µg/mL"}, {"measurement": "MIC", "setting": "[10]", "result": 250, "unit": "µg/mL"}, {"measurement": "LC50", "setting": "[11]", "result": 39.62, "unit": "ppm"}, {"measurement": "diameter of the inhibition zone (DIZ)", "setting": "[12]", "result": 7.5, "unit": "mm"}, {"measurement": "LC50", "setting": "[13]", "result": 4.94, "unit": "ppm"}]}
{"smiles": "CCCCCCCC(=O)OC[C@H](NC(=O)c1cccnc1O)C(=O)OCCCC", "values": [{"measurement": "MIC", "setting": "[1]", "result": 250, "unit": "µg/mL"}, {"measurement": "diameter of the inhibition zone (DIZ)", "setting": "[2]", "result": 7.83, "unit": "mm"}, {"measurement": "diameter of the inhibition zone (DIZ)", "setting": "[3]", "result": 7, "unit": "mm"}, {"measurement": "diameter of the inhibition zone (DIZ)", "setting": "[4]", "result": 7, "unit": "mm"}, {"measurement": "LC50", "setting": "[5]", "result": 0, "unit": "ppm"}, {"measurement": "MIC", "setting": "[6]", "result": 75, "unit": "µg/mL"}, {"measurement": "LC50", "setting": "[7]", "result": 3620.41, "unit": "ppm"}, {"measurement": "LC50", "setting": "[8]", "result": 11.02, "unit": "ppm"}, {"measurement": "MIC", "setting": "[9]", "result": 100, "unit": "µg/mL"}, {"measurement": "MIC", "setting": "[10]", "result": 50, "unit": "µg/mL"}, {"measurement": "LC50", "setting": "[11]", "result": 2.78, "unit": "ppm"}, {"measurement": "diameter of the inhibition zone (DIZ)", "setting": "[12]", "result": 7, "unit": "mm"}, {"measurement": "LC50", "setting": "[13]", "result": 0, "unit": "ppm"}]}
{"smiles": "CCCC[C@H]1C(=O)O[C@H](C)[C@H](NC(=O)c2cccc(NC=O)c2O)C(=O)O[C@@H](C)[C@@H]1OC(=O)CC(C)C", "note": "[ANTIMYCIN A3]", "values": [{"measurement": "MIC", "setting": "[1]", "result": 50, "unit": "µg/mL"}, {"measurement": "diameter of the inhibition zone (DIZ)", "setting": "[2]", "result": 10, "unit": "mm"}, {"measurement": "diameter of the inhibition zone (DIZ)", "setting": "[3]", "result": 7, "unit": "mm"}, {"measurement": "diameter of the inhibition zone (DIZ)", "setting": "[4]", "result": 8.5, "unit": "mm"}, {"measurement": "MIC", "setting": "[6]", "result": 50, "unit": "µg/mL"}, {"measurement": "MIC", "setting": "[9]", "result": 250, "unit": "µg/mL"}, {"measurement": "MIC", "setting": "[10]", "result": 250, "unit": "µg/mL"}, {"measurement": "diameter of the inhibition zone (DIZ)", "setting": "[12]", "result": 8, "unit": "mm"}]}
{"smiles": "CCCCOC(=O)[C@H](COC(=O)CCc1ccccc1)NC(=O)c1cccnc1O", "values": [{"measurement": "MIC", "setting": "[1]", "result": 1000, "unit": "µg/mL"}, {"measurement": "diameter of the inhibition zone (DIZ)", "setting": "[2]", "result": 7.5, "unit": "mm"}, {"measurement": "diameter of the inhibition zone (DIZ)", "setting": "[3]", "result": 7.83, "unit": "mm"}, {"measurement": "diameter of the inhibition zone (DIZ)", "setting": "[4]", "result": 7, "unit": "mm"}, {"measurement": "LC50", "setting": "[5]", "result": 55.58, "unit": "ppm"}, {"measurement": "MIC", "setting": "[6]", "result": 1000, "unit": "µg/mL"}, {"measurement": "LC50", "setting": "[7]", "result": 266.83, "unit": "ppm"}, {"measurement": "LC50", "setting": "[8]", "result": 100, "unit": "ppm"}, {"measurement": "MIC", "setting": "[9]", "result": 1000, "unit": "µg/mL"}, {"measurement": "MIC", "setting": "[10]", "result": 500, "unit": "µg/mL"}, {"measurement": "LC50", "setting": "[11]", "result": 76.67, "unit": "ppm"}, {"measurement": "diameter of the inhibition zone (DIZ)", "setting": "[12]", "result": 7.5, "unit": "mm"}, {"measurement": "LC50", "setting": "[13]", "result": 26.67, "unit": "ppm"}]}
